Reference: publication PMC7822874, “Chemoprotective antimalarials identified through quantitative high-throughput screening of Plasmodium blood and liver stage parasites” (Scientific Reports, 2021)
Where “and” joins values, the source holds several entries; their conditions need not be identical. Identical values can stand only once. Like-named read-outs stand apart in the source and are kept apart here.

Key:
[1] = tested on: T1, Plasmodium falciparum Dd2-attB (parental line), asexual blood stages; test: microbe, parasite or virus in culture; parameters: replicate k of 3 (each line is one of three independent assays; the three lines of one compound and parasite line follow each other); conditions: n = 1; for Individual replicates / Log AC50 (M): 72 h; for AC50: Plasmodium falciparum, DD2, 72 h, read-out: Individual replicates / Log AC50 (converted)
T1 construct: Dd2-attB, the isogenic parental line
How it was run: (§1)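 Only some compounds were profiled here. Each was assayed three independent times against the Dd2-attB parent and its yeast-DHODH-overexpressing derivative.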

[2] = tested on: T1, Plasmodium falciparum Dd2-attB (parental line), asexual blood stages; test: microbe, parasite or virus in culture; parameters: species or system P. falciparum Dd2-attB in human erythrocytes; SYBR Green-I proliferation assay, Dd2-attB parental line, asexual blood stages; conditions: 72 h; for AC50: Plasmodium falciparum, DD2, Erythrocyte; for Calculated / Average Log AC50 (M): mean of replicates, inhibitor
[3] = tested on: T2, Plasmodium falciparum Dd2-attB-ScDHODH (transgenic line expressing yeast DHODH), asexual blood stages; test: organism not typed; parameters: replicate k of 3 (each line is one of three independent assays; the three lines of one compound and parasite line follow each other)
T2 construct: Dd2-attB-ScDHODH, the transgenic line that expresses yeast DHODH
How it was run: as §1

[4] = read-out: Calculated / Average Log AC50 (M), mean of replicates, 72 h (converted)
[5] = 72 h; n = 1; read-out: Individual replicates / Log AC50 (converted)

Compound | Individual replicates / Log AC50 (M) [1] | AC50 [1] | AC50 [2, 4] | Individual replicates / Log AC50 (M) ([3]; 72 h, n = 1) | AC50 [3, 5] | AC50 ([2]; read-out: Calculated / Average Log AC50 (M) (converted)) | Calculated / Average Log AC50 (M) [2] | Individual replicates / Log AC50 (M) ([3]; 72 h; n = 1)
O=C(NCc1cccnc1)c1cccc(-c2cc(O)c3ncccc3c2)c1 [NCGC00244537-01] | -4.7986 Log AC50 (M) | 7.97 µM | 1.31e-05 M | -4.8486 Log AC50 (M) | 8.94 µM |  |  | 
CCC(C)C1=N[S+](=O)([O-])c2cc(NC(=O)C3CC3)ccc2N1c1ccccc1 (centres unmarked) [NCGC00474156-01] | -5.9486 Log AC50 (M) and -5.5986 Log AC50 (M) (2×) |  | 1.93e-06 M | -5.1986 Log AC50 (M) and -5.1486 Log AC50 (M) | 8.94 µM |  |  | 
O=C(Cc1ccc(O)cc1)N1CCC2(C1)CN(c1ccccc1)C2 [NCGC00510421-01] | -4.9486 Log AC50 (M) | 14.2 µM | 1.26e-05 M | -4.7986 Log AC50 (M) and -4.7486 Log AC50 (M) | 14.2 µM |  |  | 
Oc1ncnc2sc(C(OCCN3CCCCC3)c3ccccc3Cl)cc12 (centres unmarked) [NCGC00481361-01] | -5.0986 Log AC50 (M) | 8.94 µM | 1e-05 M | -5.0486 Log AC50 (M) | 15.9 µM |  |  | 
CCNC(=O)Oc1cc(-c2cccc(C(=O)NCCCc3ccccc3)c2)cc2cccnc12 [NCGC00372508-01] | -5.1986 Log AC50 (M) and -4.7486 Log AC50 (M) and -5.0986 Log AC50 (M) |  |  | -5.0486 Log AC50 (M) | 6.33 µM | 9.65e-06 M |  | 
O=C(O)CCNc1cc(N2CCc3ccccc3CC2)nc(-c2cccnc2)n1 [NCGC00351549-02] | -4.9986 Log AC50 (M) and -4.8486 Log AC50 (M) | 14.2 µM |  | -4.8486 Log AC50 (M) (2×) and -4.7986 Log AC50 (M) |  |  | -4.8986 M | 
CCOC(=O)c1c2ccc(C(=O)N3CCOCC3)cc2n2ccccc12 [NCGC00390098-01] | -5.0486 Log AC50 (M) | 14.2 µM | 1.26e-05 M |  | 7.1 µM |  |  | 
C=C[S+](=O)([O-])N1CCCN(c2cc(N(CCC(=O)O)[S+](=O)([O-])C=C)nc(-c3ccccn3)n2)CC1 [NCGC00420875-01] |  | 11.3 µM | 1.53e-05 M |  | 15.9 µM |  |  | 
COC(=O)c1ccnc2cc(C(OCCN3CCC(F)(F)CC3)c3ccccc3Cl)[nH]c12 (centres unmarked) [NCGC00408945-01] |  | 10 µM | 1.42e-05 M |  | 15.9 µM |  |  | 
O=C(O)c1ccc(O)c2ncc(N3CCCN(CCc4cccc5ccccc45)CC3)cc12 [NCGC00247751-02] | -5.1486 Log AC50 (M) | 6.33 µM | 9.65e-06 M | -5.2486 Log AC50 (M) and -4.7486 Log AC50 (M) |  |  |  | 
Cc1cccc(C)c1Nc1c(-c2ccccn2)nc2ccc(Cl)cn12 [NCGC00106608-03] | -4.7986 Log AC50 (M) and -4.9486 Log AC50 (M) | 15.9 µM | 1.42e-05 M |  | 15.9 µM |  |  | -4.7986 Log AC50 (M)
Oc1ccc(COCc2ccccc2)c2cccnc12 [MLS000034722-02] | -4.8986 Log AC50 (M) | 8.94 µM | 1.13e-05 M |  | 14.2 µM |  |  | -4.8486 Log AC50 (M)
CC1CN(Cc2ccccc2)CCN1c1cnc2c(O)ccc(C(=O)O)c2c1 (centres unmarked) [NCGC00249384-01] |  | 14.2 µM | 1.59e-05 M |  | 17.8 µM |  |  | 
CCCCN1CCCc2cc(CN(CCCN3CCOCC3)C(=O)Nc3ccc(OCC)cc3)ccc21 [NCGC00140593-02] | -4.9986 Log AC50 (M) and -4.7986 Log AC50 (M) | 15.9 µM | 1.36e-05 M | -4.8486 Log AC50 (M) and -4.7986 Log AC50 (M) | 17.8 µM |  |  | 
O=C(O)c1ccnc(-n2ncc(C(OCCN3CCCCC3)c3ccccc3Cl)c2-c2cccc(-c3ccccc3)c2)c1 (centres unmarked) [NCGC00481639-01] | -5.3986 Log AC50 (M) and -5.5986 Log AC50 (M) |  |  | -4.9986 Log AC50 (M) and -5.1486 Log AC50 (M) |  |  | -5.482 M | 
Cc1ccccc1CN1CCN(c2cnc3c(O)ccc(C(=O)O)c3c2)CC1 [NCGC00249382-01] |  | 14.2 µM | 1.65e-05 M |  | 15.9 µM |  |  | 
O=C(NC1=CC(=O)c2ccccc2C1=O)c1ccccc1 [MLS002693850-02] | -5.5986 Log AC50 (M) (2×) and -5.1486 Log AC50 (M) |  | 3.56e-06 M | -5.5486 Log AC50 (M) and -5.0986 Log AC50 (M) |  |  |  | 
